≈ marks a conversion by molar mass, not a printed value. Calls of active or inactive are those of the source. Some results are limits rather than exact numbers.

One data set relates to Staphylococcus. Nature of the data set: Antibacterial activity against Staphylococcus. The class given is functional.
A further data set deals with Streptococcus. Description: Antibacterial activity against Streptococcus. Type of data set: functional.
A further data set deals with Moraxella catarrhalis. Description: Antimicrobial activity against Moraxella catarrhalis. Type of data set: functional.
The next data set concerns Haemophilus influenzae. Nature of the data set: Antimicrobial activity against Haemophilus influenzae. Type of data set: functional.
The next data set relates to Listeria monocytogenes. Nature of the data set: Antimicrobial activity against Listeria monocytogenes. Type of data set: functional.
The test system of the next data set is Legionella pneumophila. Description: Antimicrobial activity against Legionella pneumophila. The class given is functional.
The next data set concerns Neisseria sp. Nature of the data set: Antimicrobial activity against Neisseria species. The class given is functional.
The subject of data set [1] is Staphylococcus aureus. Nature of the data set: Antibacterial activity against methicillin-resistant Staphylococcus aureus SA-1417 infected in mouse assessed as protection of mouse. Conditions: read-out: PD50. The class given is functional.
The next data set relates to Enterococcus. Description: Antibacterial activity against Enterococcus. Type of data set: functional.
The subject of data set [2] is Staphylococcus aureus. Nature of the data set: Antimicrobial activity against methicillin-resistant Staphylococcus aureus CBD-635 assessed as zone of inhibition at 5 mg/ml after 24 hrs by disk diffusion assay. The class given is functional. Conditions: CBD-635, 24 h, read-out: IZ. On the technique in general: Agar diffusion results depend on both activity and mobility in agar.

The subject of data set [3] is Staphylococcus aureus. Nature of the data set: Antimicrobial activity against methicillin-resistant Staphylococcus aureus CBD-635 assessed as complete inhibition of bacterial growth after overnight incubation. The class given is functional.
Data set [4] concerns Staphylococcus aureus. Description: Bactericidal activity against methicillin-resistant Staphylococcus aureus CBD-635 assessed as bacterial killing. Type of data set: functional.
A short description of data set [5]: Cytotoxicity against human A549 cells assessed as cell viability recovery up to 459 uM by MTT assay relative to untreated control. Conditions: read-out: Activity. The class given is cell-based. (Tetrazolium assays rely on reduction of a dye to a coloured formazan, in cell work by metabolically active cells.)
A short description of data set [6]: Cytotoxicity against human A549 cells assessed as cell viability recovery at up to 9.2 uM by MTT assay relative to untreated control. The class given is cell-based. Conditions: read-out: Activity.
Data set [7] in a line: Cytotoxicity against human A549 cells assessed as cell viability recovery at 36.7 to 459 uM by MTT assay relative to untreated control. The class given is cell-based. The conditions noted are these: read-out: Activity.
The test system of data set [8] is Staphylococcus aureus. Nature of the data set: Antimicrobial activity against methicillin-resistant Staphylococcus aureus CBD-635 assessed as complete inhibition of bacterial growth at 5 times MIC after overnight incubation in presence of tetrahydrofolic acid. Type of data set: functional, organism-based.
Data set [9] relates to Staphylococcus aureus. Description: Antimicrobial activity against wild type Staphylococcus aureus. The class given is functional.
Data set [10] is described as follows: Aqueous solubility of the compound at pH 7.4 after 18 hrs incubation by HPLC. Type of data set: physicochemical.
A short description of data set [11]: Aqueous solubility of the compound at pH 2 after 18 hrs incubation by HPLC. The class given is physicochemical.
Data set [12] is described as follows: Lipophilicity, log D of the compound at pH 7.4. Type of data set: physicochemical. The conditions noted are these: buffer.
Data set [13] can be described thus: Lipophilicity, log D of the compound at pH 3. Type of data set: physicochemical. The conditions noted are these: buffer.
Data set [14] in a line: Cytotoxicity against human A549 cells assessed as cell viability recovery up to 367 uM by MTT assay relative to untreated control. Conditions: read-out: Activity. Type of data set: cell-based.
Data set [15] is described as follows: Cytotoxicity against human A549 cells assessed as cell viability recovery at 1.5 uM by MTT assay relative to untreated control. Type of data set: cell-based. The conditions noted are these: read-out: Activity.
Data set [16] in a line: Cytotoxicity against human A549 cells assessed as cell viability recovery at 370 uM by MTT assay relative to untreated control. The class given is cell-based. The conditions noted are these: read-out: Activity.
For data set [17], the system named is Staphylococcus aureus. Description: Antimicrobial activity against N2,N4-dibenzylquinazoline-2,4-diamine-induced methicillin-resistant Staphylococcus aureus CBD-635 mutant assessed as complete inhibition of bacterial growth after overnight incubation. Type of data set: functional.
In data set [18] the test system is Staphylococcus aureus. Description: Antimicrobial activity against N2,N4-dibenzylquinazoline-2,4-diamine-induced methicillin-resistant Staphylococcus aureus CBD-635 mutant M1 assessed as complete inhibition of bacterial growth after overnight incubation. Type of data set: functional.
The test system of data set [19] is Staphylococcus aureus. Description: Antimicrobial activity against N2,N4-dibenzylquinazoline-2,4-diamine-induced methicillin-resistant Staphylococcus aureus CBD-635 mutant M2 assessed as complete inhibition of bacterial growth after overnight incubation. Type of data set: functional.
The test system of data set [20] is Staphylococcus aureus. Description: Antimicrobial activity against N2,N4-dibenzylquinazoline-2,4-diamine-induced methicillin-resistant Staphylococcus aureus CBD-635 mutant M3 assessed as complete inhibition of bacterial growth after overnight incubation. Type of data set: functional.
Data set [21] relates to Staphylococcus aureus. Nature of the data set: Antimicrobial activity against N2,N4-dibenzylquinazoline-2,4-diamine-induced methicillin-resistant Staphylococcus aureus CBD-635 mutant M4 assessed as complete inhibition of bacterial growth after overnight incubation. The class given is functional.
For data set [22], the system named is Staphylococcus aureus. Description: Antimicrobial activity against N2,N4-dibenzylquinazoline-2,4-diamine-induced methicillin-resistant Staphylococcus aureus CBD-635 mutant M5 assessed as complete inhibition of bacterial growth after overnight incubation. The class given is functional.
For data set [23], the system named is Staphylococcus aureus. Nature of the data set: Antimicrobial activity against N2,N4-dibenzylquinazoline-2,4-diamine-induced methicillin-resistant Staphylococcus aureus CBD-635 mutant M6 assessed as complete inhibition of bacterial growth after overnight incubation. Type of data set: functional.
Data set [24] deals with Staphylococcus aureus. Description: Antimicrobial activity against N2,N4-dibenzylquinazoline-2,4-diamine-induced methicillin-resistant Staphylococcus aureus CBD-635 mutant M7 assessed as complete inhibition of bacterial growth after overnight incubation. The class given is functional.
Data set [25] concerns Staphylococcus aureus. Nature of the data set: Antimicrobial activity against trimethoprim-resistant Staphylococcus aureus assessed as complete inhibition of bacterial growth after 24 hrs. The class given is functional, organism-based.
For data set [26], the system named is Staphylococcus aureus. Nature of the data set: Antimicrobial activity against quinazoline-resistant Staphylococcus aureus assessed as complete inhibition of bacterial growth after 24 hrs. The class given is functional, organism-based.
Data set [27] concerns Staphylococcus aureus. Description: Antimicrobial activity against wild type Staphylococcus aureus in presence of sulfamethoxazole. The class given is functional.
The test system of data set [28] is Staphylococcus aureus. Description: Antimicrobial activity against Staphylococcus aureus infected Galleria mellonella assessed as increase in larvae survival at 5 times MIC. The class given is functional.
In data set [29] the test system is Staphylococcus aureus. Nature of the data set: Antimicrobial activity against Staphylococcus aureus infected in mouse assessed as increase in mouse survival at 5 times MIC via tail vein relative to untreated control. The class given is functional.
Data set [30] deals with Staphylococcus aureus. Nature of the data set: Antimicrobial activity against Staphylococcus aureus infected in mouse assessed as increase in mouse survival at 10 times MIC via tail vein relative to untreated control. Type of data set: functional, organism-based.
Data set [31] has as its system Staphylococcus aureus. Nature of the data set: Antimicrobial activity against methicillin-resistant Staphylococcus aureus infected in mouse assessed as complete protection to mouse at MIC via tail vein relative to untreated control. Type of data set: functional, organism-based.
For data set [32] the following is noted: pampa, pH 7.4.
The conditions of data set [33]: pampa, pH 4.
Data set [34] can be described thus: Cytotoxicity against human A549 cells assessed as cell viability recovery up to 407 uM by MTT assay relative to untreated control. The class given is cell-based. Conditions: read-out: Activity.
The nature of data set [35]: Cytotoxicity against human A549 cells assessed as cell viability recovery at 1.6 to 16 uM by MTT assay relative to untreated control. Type of data set: cell-based. Conditions: read-out: Activity.
Data set [36] in a line: Cytotoxicity against human A549 cells assessed as cell viability recovery at 41 to 410 uM by MTT assay relative to untreated control. The class given is cell-based. The conditions noted are these: read-out: Activity.
In data set [37] the test system is Staphylococcus aureus. Description: Antimicrobial activity against Staphylococcus aureus infected Galleria mellonella assessed as increase in larvae survival at 10 times MIC. The class given is functional.

For the compound `Cc1c(N2CC[C@@H]([C@H](C)N)C2)c(F)cc2c(=O)[nH]c(=O)n(C3CC3)c12`, the MIC90 turned out to be 0.5 µg/mL (≈ 1.44 µM) against Staphylococcus; 0.06 µg/mL (≈ 0.173 µM) against Streptococcus; 0.5 µg/mL (≈ 1.44 µM) in the data set with Moraxella catarrhalis; 0.5 µg/mL (≈ 1.44 µM) with Haemophilus influenzae; 0.5 µg/mL (≈ 1.44 µM) with Listeria monocytogenes; 0.5 µg/mL (≈ 1.44 µM) against Legionella pneumophila. In addition, in the data set on Neisseria sp., the MIC90 came to 0.5 µg/mL (≈ 1.44 µM). Besides, the ED50 in the data set on Staphylococcus aureus [1] came out at 2.5 mg/kg. Moreover, the minimum inhibitory concentration (MIC) – broadly, the smallest concentration in the dilution series that meets the test's criterion for growth inhibition – against Enterococcus worked out at 2 µg/mL (≈ 5.77 µM).
Consider `CCCCNc1nc(NCCCC)c2ccccc2n1`, for which the zone of inhibition at 5000 µg/mL with Staphylococcus aureus [2] was found to be 12 mm. Also, in the data set on Staphylococcus aureus [3], the minimum inhibitory concentration (MIC) came out at 0.37 µM (≈ 0.101 µg/mL). Moreover, the MBC50 in the data set with Staphylococcus aureus [4] turned out to be 0.036 µM (≈ 0.00981 µg/mL). Also, the viability in data set [5] was more than 50%; in data set [6], 100%. The viability at up to 459 µM in data set [7] was determined as 58.8%. The inhibition entry with Staphylococcus aureus [8] is “inactive”.
Compound `Cc1cc(NS(=O)(=O)c2ccc(N)cc2)no1` [SULFAMETHOXAZOLE] came in with a minimum inhibitory concentration (MIC) in the data set with Staphylococcus aureus [9] of 2400 µM (≈ 608 µg/mL).
Regarding `c1ccc(CNc2nc(NCc3ccccc3)c3ccccc3n2)cc1`, in the data set on Staphylococcus aureus [2], the zone of inhibition at 5000 µg/mL was determined as 13 mm. Moreover, the MIC was 2.9 µM (≈ 0.987 µg/mL) with Staphylococcus aureus [3]; more than 590 µM in the data set with Staphylococcus aureus [17]; more than 590 µM in the data set on Staphylococcus aureus [18]; more than 590 µM in the data set on Staphylococcus aureus [19]; more than 590 µM in the data set with Staphylococcus aureus [20]; more than 590 µM with Staphylococcus aureus [21]. The MIC in the data set on Staphylococcus aureus [22], in the data set on Staphylococcus aureus [23] and with Staphylococcus aureus [24] was more than 590 µM throughout. Moreover, the solubility (in general, the dissolved amount per volume that the medium holds) at 18 h in data set [10] is not above 10 µM; in [11], not below 30 µM. Further, the logD (commonly the decadic logarithm of the distribution of all forms, ionised or not, between an organic phase and buffer at a given pH) in data set [12] was 3.82; in data set [13] it was 2.82. For the same compound, the MBC50 entry with Staphylococcus aureus [4] is “inactive”. The viability in [14] is more than 60%. Also, the viability at 1.5 µM in data set [15] came to 93.2%. Further, the viability at 370 µM in data set [16] amounted to 83.6%. Also, the inhibition result with Staphylococcus aureus [8] was “inactive”. The inhibition result with Staphylococcus aureus [25] and with Staphylococcus aureus [26] was “Active” in each case. For the same compound, the “fractional inhibitory concentration index (FICI)” value in the data set on Staphylococcus aureus [27] came to 0.12. The Survival is listed as 50% with Staphylococcus aureus [28] and 69% in the data set with Staphylococcus aureus [29]. Besides, the result in the data set with Staphylococcus aureus [30] and in the data set with Staphylococcus aureus [31] was Active. For the same compound, the permeability in data set [32] was found to be 383 ×10⁻⁶ cm/s; in data set [33], 312 ×10⁻⁶ cm/s.
On to `CCCCNc1nc(NCc2ccccc2)c2ccccc2n1`, for which, in the data set on Staphylococcus aureus [2], the zone of inhibition at 5000 µg/mL was found to be 12 mm. Moreover, the MIC in the data set on Staphylococcus aureus [3] is 3.3 µM (≈ 1.01 µg/mL). The solubility at 18 h is not above 20 µM in [10] and not below 30 µM in data set [11]. Besides, the logD was determined as 3.8 in data set [12] and 2.84 in [13]. Besides, in the data set on Staphylococcus aureus [4], the MBC50 worked out at 0.98 µM (≈ 0.3 µg/mL). Also, the viability in [34] is more than 60%. For the same compound, the viability at up to 16 µM in data set [35] was more than 100%. For the same compound, the viability at up to 410 µM in data set [36] is more than 95%. Moreover, in the data set with Staphylococcus aureus [8], the inhibition result is “inactive”. Also, the inhibition result in the data set on Staphylococcus aureus [25] and in the data set with Staphylococcus aureus [26] was “Active” each time. The “fractional inhibitory concentration index (FICI)” value in the data set on Staphylococcus aureus [27] was 0.11. The Survival in the data set on Staphylococcus aureus [28] was found to be 40%; in the data set on Staphylococcus aureus [37] it was 70%; with Staphylococcus aureus [29] it was 69%. Also, the permeability in [32] came out at 1250 ×10⁻⁶ cm/s; in [33], 161 ×10⁻⁶ cm/s.

The values are drawn from ChEMBL document CHEMBL3259619, “Antibacterial activity of a series of N2,N4-disubstituted quinazoline-2,4-diamines” (J Med Chem, 2014).
